Results on three compounds are retold here after US5187305A, “S-nitroso-N-alkonoylpenicillamines” (Glaxo Inc., priority 1990, dated 1993).

Each structure is given as a SMILES string.

One data set has as its system RABBIT AORTA. As to the kind of experiment: Aorta Vasodilation Assay, rabbit aorta rings (endothelium removed, phenylephrine-contracted). On the set-up: species or system male New Zealand white rabbits. The note with it: 20% O2, without methylene blue; for RELATIVE POTENCY: compared with nitroprusside; for IC50: Oryctolagus cuniculus, read-out: IC50 (relaxation). The text has this:
(§1) The thoracic aortas removed from euthanized male Sprague-Dawley rats (200-300 g) and male New Zealand, white rabbits (1.5-3.0 kg) are cleaned of adherent connective tissue and cut into rings 3 to 5 mm in length. Endothelium is removed by rolling the rings on moist filter paper. Rings are suspended in an organ chamber containing a physiological salt solution of (mM): NaCl, 118.4; KCl, 4.7; MgSO4.H2 O, 1.2; CaCl2.2H2 O, 2.5; KH2 PO4, 1.2; NaHCO3, 25.0; and dextrose, 11.1. The bathing solution is maintained at 37° C. and half of the tissues are aerated with 95% O2 /5% CO2 and half are aerated with 20% O2 /5% CO2 /75% N2. Tissues are mounted to isometric force displacement transducers and responses are recorded on a polygraph.
(§2) All rings are gradually stretched (over a 120 min. period) to a basal resting tension of 2 g (rat) and 4 g (rabbit), which is maintained throughout the assay. During the basal tension adjustment period, the rings are exposed to KCl (40 mM) two to three times to verify tissue contractility. During this period, the effectiveness of endothelium removal is confirmed by the absence of the characteristic relaxation seen with acetylcholine (1×10^-6 M) in endothelium-intact (but not endothelium-removed) rings contracted with phenylephrine (1×10^-7 M).
(§3) Methylene blue (1×10^-5 M) is added to half of the tissues aerated at 20% O2 and 95% O2 to inhibit basal cGMP accumulation. Phenylephrine (1×10^-7 M) is then added and the rings are allowed to obtain a stable contractile response after which time, SOD (100 U/mL) is added to the tissues. The test compound is then added in a cumulative fashion. After the stabilization of the response to the last concentration of the test compound, sodium nitroprusside (1×10^-4 M) is added to induce complete relaxation.

A further data set has as its system RAT AORTA. Description: Aorta Vasodilation Assay, rat aorta rings (endothelium removed, phenylephrine-contracted). Also noted: species or system male Sprague-Dawley rats. To be noted: 20% O2, without methylene blue; for RELATIVE POTENCY: compared with nitroprusside; for IC50: read-out: IC50 (relaxation).
Description: as §1, §2, §3

For data set [1] the following is noted: among nitrosothiols; cited from earlier work.
The conditions of data set [2]: orally (including sublingually), rectally, vaginally, nasally or transdermally; cited from earlier work.
The conditions of data set [3]: compared with glyceryl trinitrate; cited from earlier work.

The term IC50 denotes the midpoint of a concentration-inhibition curve. `CC(=O)N[C@@H](C(=O)Oc1ccccc1)C(C)(C)SN=O` [(I), R^1 = PHENYL R^2 = METHYL, N-Acetyl-3-(nitrosothio)-D-valine phenyl ester]: the “RELATIVE POTENCY” value in the data set with RABBIT AORTA is listed as 3.25; in the data set on RAT AORTA it was 3.04. The half-inhibitory concentration (IC50) in the data set on RABBIT AORTA was found to be 65 nM; in the data set with RAT AORTA, 7.6 nM.

In the case of `O=[N+]([O-])OCC(CO[N+](=O)[O-])O[N+](=O)[O-]` [NITROGLYCERIN, glyceryl trinitrate], in the data set on RABBIT AORTA, the “RELATIVE POTENCY” value amounted to 1.15 and the half-maximal inhibitory concentration (IC50) stood at 23 nM. Also, in the data set with RAT AORTA, the “RELATIVE POTENCY” value is recorded as 3.76 and the IC50 is 9.4 nM.

Consider `CC(=O)N[C@@H](C(=O)O)C(C)(C)SN=O` [SNAP, N-acetyl-3-(nitrosothio)-D-valine], for which the Stability result in data set [1] was “one of the most stable nitrosothiols known”. Besides, the Absorption result in data set [2] is reported as “poorly absorbed by these routes”. The Tolerance result in data set [3] is listed as “much less of a problem than tolerance of gyceryl trinitrate”. Moreover, the “RELATIVE POTENCY” value in the data set with RABBIT AORTA is listed as 8.0; in the data set on RAT AORTA, 56. The results for the IC50 in the data set on RABBIT AORTA and in the data set with RAT AORTA were 160 nM and 140 nM, respectively.
